Source: PubChem BioAssay (NCI)
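Briefly, cells in 96-well plates were exposed to five compound concentrations for 48 h, and endpoints were estimated by linear interpolation. GI50 is the concentration that inhibits growth by half. The concentration for full growth arrest is given as TGI.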

Experiments:
Experiment in all cases: NCI anticancer screen, dose series, 48 h
[1] = tested on: HCT-116 colon
[2] = tested on: HOP-62 NSCLC
[3] = tested on: KM12 colon
[4] = tested on: LOX IMVI melanoma
[5] = tested on: M14 melanoma
[6] = tested on: MOLT-4 leukemia
[7] = tested on: SF-268 CNS
[8] = tested on: SW-620 colon
[9] = tested on: UACC-62 melanoma
[10] = tested on: PC-3 prostate

SMILES	TGI [1] [µM]	TGI [2] [µM]	TGI [3] [µM]	TGI [4] [µM]	TGI [5] [µM]	TGI [6] [µM]	TGI [7] [µM]	TGI [8] [µM]	TGI [9] [µM]	GI50 [1] [µM]	GI50 [2] [µM]	GI50 [3] [µM]	GI50 [4] [µM]	GI50 [5] [µM]	GI50 [6] [µM]	GI50 [7] [µM]	GI50 [8] [µM]	GI50 [9] [µM]	GI50 [10] [µM]	TGI [10] [µM]
CC1(C)O/C(=C\c2ccccc2)C(=O)/C(=C/c2ccccc2)O1	> 100	> 100	> 100	> 100	> 100	43.9	> 100	> 100	> 100	–	–	–	–	–	–	–	–	–	–	–
CC1=NN(C(=O)CC(=O)N(C(=O)c2ccccc2Cl)c2ccc(C)cc2)C(=O)C1N=Nc1ccc([N+](=O)[O-])cc1 (centres undefined)	38.6	> 100	> 100	> 57.4	> 100	> 100	> 100	> 53.6	> 53.7	–	–	–	–	–	–	–	–	–	–	–
C[n+]1cc(C(O)c2ccc3c(c2)OCO3)c2ccccc2c1 (centres undefined)	> 100	> 100	> 100	> 100	91.7	55.5	> 100	> 100	> 100	–	–	–	–	–	–	–	–	–	–	–
C=C1C[C@]23CCC4C(C)(C)C(=O)CC[C@]4(C)C2C[C@H]1C(O)C3=O (some centres undefined)	–	> 75	> 75	> 75	> 75	> 75	> 75	> 75	> 75	–	–	–	–	–	–	–	–	–	–	–
N.N.N.N.[Cl-].[Co+3].[N-]=[N+]=[N-].[N-]=[N+]=[N-]	> 100	> 100	> 100	> 100	> 100	> 100	> 100	> 100	> 100	> 100	> 100	> 100	> 100	> 100	38.6	81.6	> 100	> 100	–	–
CCCCOC(=O)NC(=O)c1cn(CCCOC(=O)NCCCCCCNC(=O)OCCCn2cc(C(=O)NC(=O)OCCCC)c(=O)[nH]c2=O)c(=O)[nH]c1=O	> 100	> 100	> 100	> 100	> 100	–	> 100	> 100	> 100	–	–	–	–	–	–	–	–	–	–	–
CN(C)C(=S)/N=c1\ss/c(=N\C(=S)N(C)C)n1-c1ccc(Cl)c(Cl)c1	> 100	> 100	> 100	> 100	> 100	> 100	> 100	> 100	> 100	–	–	–	–	–	–	–	–	–	–	–
CN(CCCNC(=O)Cc1ccc2ccc3cccc4ccc1c2c34)CCCNc1cc(-c2ccc3ccccc3c2)nc2ccccc12	1.28	3.26	2.69	–	3.46	2.57	2.91	1.7	3.46	0.333	1.71	1.36	–	1.76	1.19	1.43	0.465	1.88	1.49	3.22
O=c1[nH]cnc2cccc(Cl)c12	> 100	> 100	> 100	–	> 100	> 100	> 100	> 100	> 100	–	–	–	–	–	–	–	–	–	–	> 100
CCCCC1(CN2CCOCC2)S/C(=N/c2nc(CC(=O)OCC)cs2)NC1=O (centres undefined)	63.1	> 100	> 100	42.5	67.3	> 100	> 100	> 100	> 100	22	44.7	27.7	20.3	22.8	27.7	37.6	35.9	28.3	–	–
COc1ccc(C2c3cc(OC)c(OC)cc3C(Cc3ccc([N+](=O)[O-])cc3)C2c2ccc([N+](=O)[O-])cc2)cc1OC (centres undefined)	> 100	> 100	> 100	> 100	> 100	> 100	> 100	> 100	> 100	–	–	–	–	–	–	–	–	–	–	–
COC(=O)OCC1OC(N2C(=O)NC(=O)C(Br)C2N=[N+]=[N-])CC1OC(=O)OC (centres undefined)	> 100	> 100	> 100	> 100	> 100	–	> 100	> 100	> 100	–	–	–	–	–	–	–	–	–	–	–
O=c1[nH]c2cc(Cl)ccc2nc1/C(=N\O)C(O)c1ccc(Cl)cc1Cl (centres undefined)	> 100	> 100	> 100	> 100	> 100	> 100	> 100	> 100	> 100	–	–	–	–	–	–	–	–	–	–	–
COc1cc(C)c2c(c1C)OC(=O)c1c(C)c(Cl)c(O)c(C=O)c1O2	54.9	47	35.1	42.8	52	32	65.1	> 100	43.6	–	–	–	–	–	–	–	–	–	–	–
CN[C@@H](C)[C@H](NC)c1ccccc1	> 100	–	> 100	> 100	> 100	> 100	–	> 100	> 100	–	–	–	–	–	–	–	–	–	–	–
Nc1ccn(C2(CO)C=C(CO)C(O)C2O)c(=O)n1 (centres undefined)	> 25.8	> 25.8	> 25.8	–	> 25.8	> 25.8	> 25.8	> 25.8	> 25.8	–	–	–	–	–	–	–	–	–	–	–
O=C1[C@H]2ON(c3ccccc3)C(c3ccc(Cl)cc3)[C@H]2C(=O)N1c1ccc(Cc2ccc(N3C(=O)[C@@H]4ON(c5ccccc5)C(c5ccc(Cl)cc5)[C@@H]4C3=O)cc2)cc1 (some centres undefined)	> 100	> 100	> 100	> 100	66.8	> 100	> 100	> 100	> 100	–	–	–	–	–	–	–	–	–	–	–
Oc1cc(C2OCCCO2)cc(O)c1O	> 100	> 100	> 100	–	> 100	> 100	> 100	> 100	> 100	–	–	–	–	–	–	–	–	–	–	–
COc1cccc(-n2c3nc(=O)n(C)c(=O)c-3nc3ccccc32)c1	> 100	> 100	> 100	–	27.7	40.6	53.9	51.6	19.5	–	–	–	–	–	–	–	–	–	–	–
Cc1cc(C)c(C2[C@H]3C(=O)N(c4ccc(Cc5ccc(N6C(=O)[C@@H]7ON(c8ccccc8)C(c8c(C)cc(C)cc8C)[C@@H]7C6=O)cc5)cc4)C(=O)[C@H]3ON2c2ccccc2)c(C)c1 (some centres undefined)	> 100	> 100	> 100	> 100	> 100	> 100	> 100	> 100	> 100	–	–	–	–	–	–	–	–	–	–	–
